Experimental data as given in patent publication US20250195547A1, “COMPOSITIONS AND METHODS OF TREATMENT FOR CONGENITAL DIARRHEAL DISORDER” (VANDERBILT UNIVERSITY, priority 2022, published 2025).
pEC50: −log10 of the molar value. “Also recorded” adds a separate entry of the source.

Assays:
Myo5bΔINT mice = test: Daily LPAR agonist treatment of tamoxifen-induced Myo5bΔINT mice (MVID model), intestinal histology and immunostaining; type: in vivo, mouse; conditions: for Hmgcs2 protein expression in jejunal epithelial cells / apical localization of transporters NHE3 and SGLT1: immunostaining; for Hmgcs2 protein expression in jejunal epithelial cells: once daily ip for 4 days; for tuft cell differentiation (tuft cell population) in Myo5bΔINT intestine: once a day for 4 days, LPA 3 mg/kg, Compound-1 1 mg/kg, UCM-05194 10 mg/kg, GRI977143 3 mg/kg; for apical localization of transporters NHE3 and SGLT1: small intestine, daily treatment
Description: All animal studies were performed with approval from the Institutional Animal Care and Use Committee of Vanderbilt University Medical Center (M2000104). At the 8-10 week of age, Myo5bΔINT mice and littermate controls (VilCre^ERT2; Myo5b^+/flox and Myo5b^flox/flox) received a single dose of tamoxifen (100 mg/kg) by intraperitoneal (IP) injection (day 0) (Weis et al.). […] Compound-1 was dissolved in PBS, and UCM-05194 was dissolved in Captisol solution. Body weight changes and diarrhea symptoms were investigated daily. On day 4, mice were euthanized and the duodenum (0-8 cm from the pyloric ring), jejunum (8 cm following the duodenum), ileum (distal 8 cm from the ileocecal junction), and colon were collected for pathological assessment as previously reported (Kaji et al.).
Immunofluorescence staining and imaging were performed as previously reported (Kaji, JCI Insight). Four-μm-thin sections were deparaffinized and rehydrated before performing antigen retrieval using 10 mM sodium citrate buffer, contained 0.05% Tween 20 (pH 6), in a pressure cooker for 15 minutes. After cooling down on ice, slides were rinsed in PBS and blocked with protein block serum-free (Dako) for 1 hour at r/t or overnight at 4° C. The primary antibodies against NHE3 (1:200), SGLT1 (0.5 μg/ml) (Kaji et al., 2020), DCLK1 (AF647-conjugated, 1:2000), KRT19 (1:250), CD3, HMGCS2 (1:50), or Actg1 (1:100) were diluted in Dako diluent in background reducing compound (S3022) and incubated on sections overnight at 4° C. After rinsing in 0.1 M PBS, the slides were incubated with the corresponding secondary antibodies conjugated with fluorescence (Jackson Laboratory) for 1 hour. Slides were rinsed in 0.1 M PBS and counterstained with Hoechst 33342 (4 mM, Thermo Fisher Scientific, Waltham, MA) in PBS. The stained slides were cover-slipped with ProLong Gold Antifade Reagent (P36934, Thermo Fisher). Whole slide images were scanned by a Versa imager 200 with a 20× objective (Leica Biosystems, Buffalo Grove, IL) in the Vanderbilt Digital Histology Shared Resource (DHSR). Some immunofluorescence images were taken by using a Zeiss Axio Imager M2 with ApoTome (Carl Zeiss Microscopy, LLC, White Plains NY).
The DIA code to quantify the tuft cell populations was developed at the DHSR on Python platform as described previously (Kaji 2021).

[1] = test system: MYO5B(P663L) pig enteroids; test: Tuft cell differentiation in pig MVID model enteroids; type: cell-based; conditions: 100 nM daily in ODM, 5 days, vs vehicle (PBS)
Description: Pig enteroids were expanded in Matrigel (Corning) immersed in IntestiCult Organoid Growth Medium (Human, OGM, Stem Cell Technology). Organoid growth was assessed in 96-well plate and continuously imaged whole wells using a JuLi™ Stage (NanoEn Tek Inc., Waltham, MA). Organoid perimeter was measured by using FIJI, and organoid forming rate was calculated as sphere numbers per plated cell numbers 7 days after the passaging. N=7-9 wells from each genotype. In a different set of culture, tuft cells were differentiated in Organoid Differentiation Medium (ODM, Stem Cell Technology) for 5 days, following after 2 days culture in OGM after passaging. MYO5B(P663L) enteroids were incubated with 100 nM Compound-1 or vehicle (PBS) in ODM.
Organoids were fixed with 10% NBF for 30 min in Matrigel domes, rinsed with cold PBS containing 0.1% FBS and centrifuged to remove Matrigel. Fixed organoids were blocked with 5% normal donkey serum in PBS containing 0.3% Triton X-100 for 2 hours and incubated with the pGirdin (1:100) or POU2F3 (1:200) antibody diluted with the blocking solution for 2 days at 4° C. After rinsing in PBS with Triton X-100, donkey anti-rabbit Cy3 antibody (2.5 μg/ml), Alexa Fluor 488 phalloidin (1:400, A12379, Thermo Fisher), and Hoechst 33342 (2 mM) were applied for 2 hr. […]

Myo5bΔINT enteroids = test: Bulk transcriptional analysis (RNA-seq) in MYO5B deficient mouse enteroids; type: cell-based; conditions: 100 nM
Description: Enteroids were generated from jejunal crypts of adult VilCre^ERT2; Myo5b^flox/flox and VilCre^ERT2; Myo5b^flox/G519R mice (Burman & Momoh CMGH) without tamoxifen treatment and passaged twice with mechanical breakdown. One day after the second passage, 1 μM 4-OH-tamoxifen (SML1666, Sigma) was added into the IntestiCult Organoid Growth Medium (Mouse, Stem Cell Technology) and incubated for 24 hours to induce Cre recombinase. After the incubation with 4-OH-tamoxifen (induced KO or G519R) or the vehicle, 100% ethanol (Control), the medium was replaced with the modified Minigut medium (Mahe et al., 2013) containing 5% Noggin conditioned medium and 5% R-spondin conditioned medium (Vanderbilt Organoid Core) to withdraw Wnt and EGF for enhancing cell differentiation (Kaji JCI Insight). Some iKO enteroids were incubated with 100 nM Compound-1 for 2 days in differentiation conditions.
Following differentiation, enteroids were placed in Organoid Harvesting Solution (3700-100-01; Cultrex) for 1 hr at 4° C. Enteroids were washed with PBS and centrifuged. Enteroid pellets were immersed in TRIzol reagent (15596026; Invitrogen) supplemented with glycogen (G1767; Sigma Aldrich) and stored at −20° C. Total RNA was extracted from enteroids following the manufacturer's instructions. RNA-sequencing with 4 samples per group and differential expressing gene analysis were performed in Novogene.

[2] = Plasma level after bolus intraperitoneal injection in wild type adult mice; type: in vivo, mouse
Solubility / stability = type: physicochemical; conditions: as a sodium salt
human LPAR5 = human LPAR5 (Homo sapiens, UniProt Q9H1C0); conditions: cited from earlier work
Sequence of human LPAR5 (Q9H1C0 whole entry): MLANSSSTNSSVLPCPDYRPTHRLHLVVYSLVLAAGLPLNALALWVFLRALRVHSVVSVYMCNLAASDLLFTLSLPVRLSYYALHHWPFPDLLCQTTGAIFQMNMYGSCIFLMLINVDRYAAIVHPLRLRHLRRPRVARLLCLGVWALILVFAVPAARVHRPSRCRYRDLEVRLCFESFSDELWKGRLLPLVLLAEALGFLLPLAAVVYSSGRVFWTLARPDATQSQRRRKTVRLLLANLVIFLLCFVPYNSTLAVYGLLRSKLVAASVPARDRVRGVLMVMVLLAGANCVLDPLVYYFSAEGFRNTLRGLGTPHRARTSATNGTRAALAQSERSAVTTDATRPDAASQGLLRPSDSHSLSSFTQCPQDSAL

human LPAR3 = biological target: T1, human LPAR3 (Homo sapiens, UniProt Q9UBY5); conditions: cited from earlier work
T1 sequence (Q9UBY5 1-353): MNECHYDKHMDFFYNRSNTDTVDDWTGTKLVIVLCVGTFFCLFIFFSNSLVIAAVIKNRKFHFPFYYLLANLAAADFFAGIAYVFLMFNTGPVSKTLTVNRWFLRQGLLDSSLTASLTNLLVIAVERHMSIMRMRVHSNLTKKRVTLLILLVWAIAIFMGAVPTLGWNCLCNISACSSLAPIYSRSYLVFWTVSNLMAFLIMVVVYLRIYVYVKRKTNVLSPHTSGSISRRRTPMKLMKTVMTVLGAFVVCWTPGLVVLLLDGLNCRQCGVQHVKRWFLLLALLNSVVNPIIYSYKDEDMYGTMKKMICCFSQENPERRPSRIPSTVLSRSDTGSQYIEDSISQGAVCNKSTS

[3] = natural LPA; background statement; cited from earlier work

CCCCCCCCCCCCCCCCOC(CCP([O-])(O)=S)COC.[Na+] (stereo not shown) [Compound-1]
Intestinal villus/crypt ratio (Myo5bΔINT mice; Compound-1 1 mg/kg daily, intraperitoneal, 4 days, vs vehicle): significantly improved | increase of villus/crypt ratio in the small intestine (Myo5bΔINT mice; daily Compound-1 treatment): 150% | effect of subcutaneous tablet insertion (continuous delivery) (Myo5bΔINT mice; high dose 2 mg/mouse per tablet): no consistent effect | Hmgcs2 protein expression in jejunal epithelial cells (Myo5bΔINT mice): remarkably upregulated | effect of subcutaneous tablet insertion (continuous delivery) (Myo5bΔINT mice; low dose 0.2 mg/mouse per tablet): no consistent effect | tuft cell differentiation (tuft cell population) in Myo5bΔINT intestine (Myo5bΔINT mice): reversed; also recorded: significantly increased | apical localization of transporters NHE3 and SGLT1 (Myo5bΔINT mice): partially recovered; also recorded: partially reversed to normal | body weight loss (Myo5bΔINT mice; within 4 days, similar to vehicle-treated group): approximately 14% | tuft cell numbers in MYO5B(P663L) enteroids [1]: significantly increased | Nox1 expression decreased by MYO5B loss (Myo5bΔINT enteroids; 2 days): reversed | inflammation- and infection-related genes (Nlrp1b, Ldhb, Hspg2, Trim30) increased by MYO5B loss (Myo5bΔINT enteroids; 2 days during differentiation): significantly reversed | Hmgcs2 expression in enteroids with and without Compound-1 (Myo5bΔINT enteroids; 2 days, control vs MYO5B deficient enteroids): comparable | Compound in plasma ([2]; 1 hour after bolus ip injection 10 mg/kg): detected | plasma concentration (disappeared) ([2]; within 6 hours after bolus ip injection 10 mg/kg): < 10 ng/mL | solubility in water (Solubility / stability): highly soluble | pEC50 (human LPAR5): 9.59 | effect on human LPAR3 (human LPAR3): agonistic effect

CCCCCCCC/C=C\CCCCCCCC(=O)OCC(O)COP(=O)(O)O (stereo not shown) [LPA, 18:1 1-oleoyl-Lyso PA, reference compound]
fatty acid oxidation or lipogenesis pathways (transcription) (Myo5bΔINT mice; RNA-seq of jejunal epithelial cells, in vivo LPA (18:1)): did not reverse | transcription of Hmgcs2 in jejunal epithelial cells (Myo5bΔINT mice; RNA-seq, vs vehicle-treated Myo5bΔINT or healthy littermate mice): significantly upregulated | Hmgcs2 protein expression in jejunal epithelial cells (Myo5bΔINT mice): further increased | tuft cell differentiation (tuft cell population) in Myo5bΔINT intestine (Myo5bΔINT mice): reversed | apical localization of transporters NHE3 and SGLT1 (Myo5bΔINT mice): similarly improved | solubility and stability [3]: poor

O=C(CCCc1ccccc1)O[C@H](CBr)COP(=O)(O)O [UCM-05194, reference compound]
intestinal histology (Myo5bΔINT mice; once a day for 4 days after tamoxifen): did not significantly alter | tuft cell differentiation (tuft cell population) in Myo5bΔINT intestine (Myo5bΔINT mice): no significant effect
